One may read the Kd as the free concentration of one partner at which half of the binding sites on the other are occupied at equilibrium, for simple one-to-one binding.

Where “and” joins values, the source holds several entries; their conditions need not be identical. Identical values can stand only once.

Experimental findings from article PMC8881573, “Inhibition of SRP-dependent protein secretion by the bacterial alarmone (p)ppGpp” (Nature Communications, 2022) are described below.

Assay [1] addresses T1, (Ec)Ffh-NG (Escherichia coli, UniProt P0AGD7).
T1 construct: purified NG domains of (Ec)Ffh, (Ec)FtsY and (Bs)Ffh; His6 (C); made in house; host or cells: E. coli BL21 (DE3)
Put plainly: Isothermal titration calorimetry (ITC) of nucleotide binding. More on the design: species or system E. coli. How it is done:
(§1) Ligands and proteins (purified NG domains of (Ec)Ffh, (Ec)FtsY and (Bs)Ffh) were diluted with a buffer containing 20 mM HEPES-Na (pH 7.5), 200 mM NaCl, 20 mM MgCl2 and 20 mM KCl. The NG domains of (Ec)Ffh, (Ec)FtsY and (Bs)Ffh were titrated in the sample-cell at a nominal concentration of 25 µM each. The nucleotides GDP, GTP, ppGpp and pppGpp (Jena Bioscience, Germany) were placed in the syringe and their concentrations were predetermined by absorbance at 252 nm to saturate the protein samples during the titrations. All the measurements were performed at 25 °C with the instrument MicroCal PEAQ-ITC (©Malvern Panalytical) with a method consisting of 13 injections (first 0.4 µL, and the rest 3 µL each) and 150 s of spacing. The raw data (see source) were processed with the MicroCal PEAQ-ITC Analysis Software (©Malvern Panalytical) using the “one set of sites” models.
In general terms: In ITC the heat of successive injections is recorded.

Assay [2] addresses T2, (Ec)FtsY-NG (Escherichia coli, UniProt P10121).
T2 construct: purified NG domains of (Ec)Ffh, (Ec)FtsY and (Bs)Ffh; His6 (C); made in house; host or cells: E. coli BL21 (DE3)
Described as above. The settings on record: NG domain, 25 °C, one set of sites model. More on the design: species or system E. coli. How it is done: as §1

Assay [3] concerns the target T3, (Bs)Ffh-NG (Bacillus subtilis, UniProt P37105).
T3 construct: purified NG domains of (Ec)Ffh, (Ec)FtsY and (Bs)Ffh; His6 (N); made in house; host or cells: E. coli Rosetta pLysS
T3 sequence (P37105 1-297 limits assumed): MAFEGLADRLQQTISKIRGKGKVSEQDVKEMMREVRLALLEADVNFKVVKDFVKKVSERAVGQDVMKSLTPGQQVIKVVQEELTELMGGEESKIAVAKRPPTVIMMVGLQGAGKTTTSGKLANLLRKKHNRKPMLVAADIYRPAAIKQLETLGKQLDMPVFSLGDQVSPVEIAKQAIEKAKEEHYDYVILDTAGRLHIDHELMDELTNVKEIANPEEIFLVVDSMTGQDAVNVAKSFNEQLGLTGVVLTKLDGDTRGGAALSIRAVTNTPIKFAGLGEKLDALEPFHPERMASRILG
Described as above. More on the design: species or system B. subtilis. The settings on record: NG domain, 25 °C, one set of sites model. How it is done:
as §1

The target in assay [4] is T1, (Ec)Ffh-NG. In words: Microscale thermophoresis (MST) ligand binding. More on the design: species or system E. coli. The settings on record: NG domain labeled with NT 647, 21 °C. How it is done: (§2) Ligand binding assays with purified NG domains of (Ec)Ffh, (Ec)FtsY and (Bs)Ffh proteins were carried out by microscale thermophoresis (MST)[80]. All experiments were performed on a Monolith NT.115 (NanoTemper Technologies GmbH, Munich, Germany; software: NanoTemper Control Version 2.0.2.29) at 21 °C (red LED power was set to 50–100% and infrared laser power to 75%). After labeling of primary amines within (Ec)Ffh, (Ec)FtsY, and (Bs)Ffh (50 µM each) with the dye NT 647 (according to the manufacturers protocol), the proteins were re-buffered in SEC buffer containing 20 mM HEPES-Na, 20 mM KCl, 20 mM MgCl2, 200 mM NaCl (final pH 7.5), 10 mg ml^−1 BSA and 0.007% Tween. Two-hundred nanomolar of (Ec)Ffh, (Ec)FtsY, and (Bs)Ffh were titrated with GDP, GTP, ppGpp, and pppGpp starting from a concentration ranging between 0.75 and 3 mM, respectively. At least six independent MST experiments per ligand and protein were recorded at 680 nm and analyzed using NanoTemper Analysis version 1.5.37 and 1.2.009, and Origin8G software suits.
(In MST a laser heats a spot of the sample, and binding alters the fluorescence response.)

In assay [5] the target is T2, (Ec)FtsY-NG. Put plainly: Microscale thermophoresis (MST) ligand binding. More on the design: species or system E. coli. The settings on record: NG domain labeled with NT 647, 21 °C. Here is the method: as §2
In assay [6] the target is T3, (Bs)Ffh-NG. Put plainly: Microscale thermophoresis (MST) ligand binding. More on the design: species or system B. subtilis. The following applies: NG domain labeled with NT 647, 21 °C. How it is done: as §2

T2 sequence (P10121 197-497): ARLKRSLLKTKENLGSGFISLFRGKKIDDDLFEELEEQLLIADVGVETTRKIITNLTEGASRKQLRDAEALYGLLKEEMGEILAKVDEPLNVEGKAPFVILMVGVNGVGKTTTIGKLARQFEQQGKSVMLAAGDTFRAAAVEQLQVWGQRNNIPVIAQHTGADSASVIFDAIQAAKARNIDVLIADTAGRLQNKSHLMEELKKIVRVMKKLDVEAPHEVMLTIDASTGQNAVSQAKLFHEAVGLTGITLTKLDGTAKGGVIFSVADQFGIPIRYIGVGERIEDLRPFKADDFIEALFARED
T1 sequence (P0AGD7 1-296): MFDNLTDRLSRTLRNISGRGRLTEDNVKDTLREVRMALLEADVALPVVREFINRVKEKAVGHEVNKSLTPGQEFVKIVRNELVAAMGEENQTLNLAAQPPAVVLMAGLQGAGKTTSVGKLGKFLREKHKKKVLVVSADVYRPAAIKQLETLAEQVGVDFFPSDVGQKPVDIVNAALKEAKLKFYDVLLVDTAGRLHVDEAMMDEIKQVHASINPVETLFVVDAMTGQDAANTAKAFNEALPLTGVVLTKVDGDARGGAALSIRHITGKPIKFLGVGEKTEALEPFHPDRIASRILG

`Nc1nc2c(ncn2[C@@H]2O[C@H](COP(=O)(O)OP(=O)(O)O)[C@@H](O)[C@H]2O)c(=O)[nH]1` [GDP]: the Kd is 2200 ± 600 nM at (Ec)Ffh-NG [1]; 9.8 ± 1.1 µM at (Ec)FtsY-NG [2]; 1200 ± 700 nM on (Bs)Ffh-NG [3]; 7.9 µM and 7.94 µM at (Ec)Ffh-NG [4]; 9.6 µM and 9.63 µM at (Ec)FtsY-NG [5] (read-out: (Ec)FtsY KD MST); 9.23 ± 0.99 µM on (Bs)Ffh-NG [6].
In the case of `Nc1nc2c(ncn2[C@@H]2O[C@H](COP(=O)(O)OP(=O)(O)OP(=O)(O)O)[C@@H](O)[C@H]2O)c(=O)[nH]1` [GTP], the Kd at (Ec)Ffh-NG [1] is 700 ± 500 nM; on (Bs)Ffh-NG [3], 600 ± 500 nM; at (Ec)Ffh-NG [4], 62.3 µM; on (Ec)FtsY-NG [5] ((Ec)FtsY KD MST), 63.8 µM; on (Bs)Ffh-NG [6], 30.3 µM.
